“Also recorded” adds a separate entry of the source.
System: Beta vulgaris (sugar beet) microspores
Assay: Callus induction from isolated sugar beet microspores (microspore culture)
Format: cell-based
Details: for callus induction potential in comparison to TSA: comparator TSA 5 μM, same time point, duration and buffer
Source text: The experimental set-up is detailed in the below Examples. In the Figures, each column represents a different genotype. […] Time point, duration and buffer used were always identical for all treatments in the different rows. The different rows thus only differ from each other in the kind of inhibitor used.
Bracteoles are cut off the inflorescence and buds bigger than 1.8 mm are removed. Remaining part is divided into smaller pieces, preferably pieces of 1-1.5 cm. Buds smaller than 1.8 mm contain typically microspores at the tetrad and uninuclear developmental stage, which are the optimal developmental stages for further progressing. However, it should be noted that due to broad variation of different genotypes and donor sources (e.g., monogerm and multigerm), the correlation between the maximum flower bud size and nuclear stages of the microspores needs to be established for each genotype individually. The determination of the nuclear stages is carried out using a fluorescence-based staining method. The method contains fixation of the cells for instances with Ethanol acetic acid and DAPI staining (Kim, Moon-Za, and In-Chang Jang. “Rapid Assessment of Microspore Development Stage in Pepper Using DAPI and Ferric chloride.” Journal of Plant Biotechnology 2.3 (2000): 129-134.).
The flower shoot segments are transferred to isolation buffer, e.g., in a blending device and 40 ml (isolation buffer, Table 1) is added. The Isolation buffer contains macro- and microsalts, amino acids, monosaccharides and one or more complex protein compositions, pH is adjusted to pH 7.5. The complex protein composition or its source comprises preferably hydrolysed or partially hydrolysed protein matter or protein source. It can derive from any source that is known or that be applicable in addition, such as milk (such as, casein, whey), animal (such as, meat, fish), cereal (such as, rice, corn), plant (such as, soybean) or its combination. This proteinoid comprises milk protein isolates, as described herein lactoprotein concentrate, casein isolates, casein hydrolysate, lactalbumin, casein-sodium or calcium caseinate, full cow's milk, partially or completely skimmed milk, soy protein isolate, soybean protein concentrate etc. In one embodiment, complex protein composition comprises the protein source of the milk protein deriving from bovine milk.
The material is homogenized, e.g., by means of a homogenizer such as a Waring blender or sonication device at around 3000 rpm for 1 min. The crude cell suspension is passed stepwise through cell strainers of pore sizes between 25 μm and 100 μm. The purified suspension is transferred into tubes for subsequent centrifugation at ˜200 g for 3 min.
The supernatant is removed and the pellet is resuspended in a suitable amount of isolation buffer. An aliquot of the cell solution is taken for evaluation of the number of cells per ml by means of a counting chamber. Cell density is adjusted preferably to a cell density of 25,000 to 500,000 cells with TM media.
If the HDACi trichostatin A (TSA) is used, it is dissolved in dimethylsulfoxide (DMSO) to a final concentration of between 1 nM and 10 μM, preferably 100 nM to 10 μM, more preferably 1 μM to 10 μM, depending on the genotype and the donor sources (e.g., monogerm and multigerm). Other non-limiting examples of HDACi which may be used belong to the class of hydroxamic acids and hydroxamates, such as vorinostat (SAHA), belinostat (PXD101), LAQ824, and panobinostat (LBH589). Other non-limiting examples of HDACis for use according to the invention include cyclic tetrapeptides (such as trapoxin B) and depsipeptides, such as romidepsin (FK228), benzamides such as entinostat (MS-275), C1994, and mocetinostat (MGCD0103), electrophilic ketones, and aliphatic acid compounds such as phenylbutyrate and valproic acid.
After 1 to 10 days incubation at 32° C. the TSA is removed by centrifugation preferably at ˜200 g.

## Cc1sc2c(c1C)C(c1ccc(Cl)cc1)=N[C@@H](CC(N)=O)c1nnc(C)n1-2 [CPI-203]
CPI-203 1 μM, 2.5 μM and 5 μM, 6 genotypes, FIG. 6
  callus induction: slight positive effect; also recorded: very small, but positive, effect
  callus induction potential in comparison to TSA: performed worse than TSA

## O=C(CCCCCCC(=O)Nc1ccccc1)NO [SAHA, vorinostat]
SAHA 1 μM and 5 μM vs TSA 5 μM, microspore culture
  toxicity in comparison to TSA: more toxic
SAHA 1 μM and 5 μM, same buffer as TSA, six genotypes, FIG. 4
  callus induction: good effect on some genotypes
  callus induction potential in comparison to TSA: less effective than TSA

## CC(=O)N1c2ccc(-c3ccc(C(=O)O)cc3)cc2[C@H](Nc2ccc(Cl)cc2)C[C@@H]1C [I-Bet 726]
I-Bet 726 1 μM, 2.5 μM and 5 μM, FIG. 7
  callus induction: No callus induction

## CC(/C=C/C(=O)NO)=C\[C@@H](C)C(=O)c1ccc(N(C)C)cc1 [TSA, trichostatin A]
TSA 5 μM, six genotypes, positive control of FIG. 4 to FIG. 7
  callus induction: strong callus induction in all six genotypes
TSA in the lower μM or even nM range and in higher concentrations, data not shown
  callus induction performance at other concentrations: performed well
  callus induction potential in comparison to TSA: performed best

Source: patent US20250040503A1, “METHOD FOR PRODUCING HAPLOID, AND DOUBLED HAPLOID BETA VULGARIS PLANTS BY MICROSPORE CULTURE” (KWS SAAT SE & Co. KGaA, priority 2021, published 2025)
